Measured values published in patent publication EP3381906A1, “COMPOUNDS FOR USE AS HEPARANASE INHIBITORS” (Leadiant Biosciences SA, priority 2017, dated 2018).

Columns and labels:
heparanase = target: T1, heparanase (Homo sapiens, UniProt Q9Y251); assay: AGA*IA assay: heparanase-catalyzed fondaparinux cleavage, colorimetric (WST-1); type: biochemical; details: 2.5 nM heparanase, 100 µM fondaparinux, pH 5.0, 3 h at 37°C; class symbols; read-out: AGAIA assay (IC50)
T1 construct: 100 µM fondaparinux, 2.5 nM heparanase and serial dilutions of test compounds
T1 sequence (Q9Y251 158-543 limits assumed): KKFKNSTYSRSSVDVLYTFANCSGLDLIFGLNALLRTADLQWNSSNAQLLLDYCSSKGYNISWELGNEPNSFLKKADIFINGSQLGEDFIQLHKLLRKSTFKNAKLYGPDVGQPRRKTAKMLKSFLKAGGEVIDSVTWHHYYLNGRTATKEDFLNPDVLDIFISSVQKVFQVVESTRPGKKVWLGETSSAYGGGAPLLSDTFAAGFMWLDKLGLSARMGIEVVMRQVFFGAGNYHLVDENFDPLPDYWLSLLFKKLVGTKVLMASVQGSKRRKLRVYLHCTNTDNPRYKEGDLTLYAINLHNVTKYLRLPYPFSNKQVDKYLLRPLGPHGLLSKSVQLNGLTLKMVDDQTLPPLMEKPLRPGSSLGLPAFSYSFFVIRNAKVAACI
T1 sequence (Q9Y251 36-109 limits assumed): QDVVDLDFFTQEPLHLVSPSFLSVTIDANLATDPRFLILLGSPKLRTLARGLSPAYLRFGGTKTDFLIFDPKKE
Protocol: All compounds were tested in a simple, accurate and robust microplate assay based on the cleavage of the synthetic heparin fragment, the pentasaccharide Fondaparinux (AGA*IA). This assay was originally developed by Hammond and coworkers [Hammond E, Li CP, Ferro V. Development of a colorimetric assay for heparanase activity suitable for kinetic analysis and inhibitor screening. […] Fondaparinux is cleaved by heparanase to generate a reducing disaccharide, which can be quantitatively measured via a colorimetric or a fluorescence assay, the last by the fluorescent sensor polymer-H [Schiemann S, Lühn S, Alban S. Development of both colorimetric and fluorescence heparinase activity assays using fondaparinux as substrate.
The assay measures the appearance of the disaccharide product of heparanase-catalyzed fondaparinux cleavage colorimetrically using the tetrazolium salt WST-1. Assay was essentially performed as described with minor modifications. Briefly, NUNC ELISA 96-well plates were pre-treated with a solution of 4% BSA (bovin serum albumin) in phosphate-buffered saline containing 0.05% Tween 20 (PBST), for 2 h at 37°C, then washed three times with PBST, dried by tapping on paper towel and stored at -20°C. Before use, once again, the plates were washed with PBST.
Then, the absorbance at 560 nm was measured through a microplate reader (Victor 3, Perkin Elmer).
Finally, the measurements were corrected by subtracting both the reagent background and the inner absorbance value of test compound.

[1] = system: HT1080 (human fibrosarcoma); assay: Matrigel cell invasion assay; type: cell-based; details: HT-1080, HT1080, Conc. 10 µM
Protocol: Heparanase inhibitors were then evaluated for their activity on the invasive potential of HT1080 (human fibrosarcoma) human cell lines, using the Matrigel cell invasion assay which allows to assess the cell invasion ability of malignant and normal cells.
Invasion assay was performed using BioCoat cell culture inserts (BioCoat 8.0µm PET Membrane 24 Well Permeable Supports, Corning). Filters were coated with 100 µl of 300 µg/ml Matrigel dissolved in coating buffer (0.01M Tris pH 8.0, 0.7% NaCl) (Becton-Dickinson Sciences). DMEM (Dulbecco's Modified Eagle's Medium) containing 5% FBS was added to the lower chambers. Cells were pre-treated with heparanase inhibitors for 24 h, detached and added to the upper chambers in media containing the inhibitors. Cells were allowed to invade for 24 h at 37°C in a CO2 incubator and then unmigrated cells were removed from the upper chamber with a cotton swab. The invading cells were fixed, stained with 0.1% crystal violet for 10 min at room temperature, photographed and counted under inverted microscope.
Test compounds were analyzed at fixed concentration for several fields, in duplicates. Activity of test compounds was compared to the reference compound. Activity of most interesting compound was confirmed in a second cell invasion assay. Data were expressed as the percent invasion with respect to cell migration through uncoated insert membrane. (Table 5)

U87MG = assay: Matrigel cell invasion assay; type: cell-based, human; details: Homo sapiens, U-87 MG, Conc. 10 µM
U2OS = assay: Matrigel cell invasion assay; type: cell-based, human; design: key to Invasion Assay Inhibition (%) U2OS: +++: > 90%; ++: 50-90 %; +: < 50%; -: Not active; details: Conc. 10 µM
[2] = system: HT1080 (human fibrosarcoma); assay: Cell adhesion assay on matrigel coated wells; type: cell-based; details: HT1080, Conc. 10 µM; percent of adhesion with respect to the control (100%)
Protocol: Cell surface, non-integrin molecules such as heparan sulfate proteoglycans (HSPGs) may be involved in the regulation of early adhesive stages of cell-ECM interactions. A cell adhesion assay has been employed to determine if the newly designed heparanase inhibitors were able to interfere with adhesion properties of cancer cells.
HT1080 (human fibrosarcoma) cells were treated for 18-20 h with test compounds in complete medium supplemented with 10% FCS. Then cells were collected, washed in complete medium, and added to matrigel coated wells in triplicate, at previously identified optimal seeding density, and incubated at 37 °C in complete medium for times ranging from 15 minutes to 4h, according to the cell line. After incubation, the wells were washed three times with serum-free medium and the remaining firmly attached cells were stained with crystal-violet 0.1%. Optical density was measured at 560 nm by Victor 3 (Perkin-Elmer) plate analyzer. Each experiment was repeated three times.

FGF-1 = assay: Real-Time Quantitative PCR of pro-angiogenic genes in HT1080 cells; type: cell-based, human; details: 24 h, Conc 10.0 uM
Protocol: (§1) To evaluate the effect of heparanase inhibitors on the tumor transcription of genes encoding for proangiogenic factors, such as FGF1/2, VEGF, MMP-9, HSPE-1, the relative mRNA levels were analyzed by quantitative Real-Time Quantitative PCR. To perform the assay, HT1080 (human fibrosarcoma) cells were cultured in complete medium containing 10%FCS (fetal calf serum). Cells were plated in 24-well plates and treated at fixed concentration (i.e., highest non-toxic concentration) of test compounds. After 24 h, cells were detached, collected and total RNA extracted by RNeasy Mini Kit (QIAGEN). Following reverse transcription step, FGF1/2, VEGF, MMP-9, HSPE-1 mRNA levels, were quantified by qPCR using the advanced Universal SYBR Green Supermix (Bio Rad) and ABI PRISM 7900HT Thermal Cycler System (Perkin Elmer), according to the manufacturer's instructions. Appropriate no-RT and non-template controls were included in each 96-well PCR reaction, and dissociation analysis was performed at the end of each run to confirm the specificity of the reaction. Relative levels of RNA were calculated using the ddCt method. Standard curve and sample data were run in duplicate. In the Table a mean value is reported.

FGF-2 = assay: as above; type: cell-based, human; details: 24 h, Conc 10.0 uM
Protocol: as §1

MMP-9 = assay: as above; type: cell-based, human; details: 24 h, Conc 10.0 uM
Protocol: as §1

VEGF = assay: as above; type: cell-based, human; details: 24 h, Conc 10.0 uM
Protocol: as §1

## COc1cc(N=Nc2cc(S(=O)(=O)O)cc3cc(S(=O)(=O)O)cc(O)c23)c(C)cc1NC(=O)Nc1cc(C)c(N=Nc2cc(S(=O)(=O)O)cc3cc(S(=O)(=O)O)cc(O)c23)cc1OC [SST0597]
heparanase
  IC50: 50 to 490 nM
[1]
  inhibition at 10 µM: > 90%
U87MG
  inhibition at 10 µM: < 50%
U2OS
  Invasion Assay Inhibition (%) U2OS: -
[2]
  Adhesion Assay (%) HT1080: ∼ 85%
FGF-1
  Gene Expression (% mRNA vs. control) FGF-1: ∼ 100%
FGF-2
  Gene Expression (% mRNA vs. control) FGF-2: ∼ 82%
MMP-9
  Gene Expression (% mRNA vs. control) MMP-9: ∼ 69%
VEGF
  Gene Expression (% mRNA vs. control) VEGF: ∼ 100%
